# pIC50: −log10 of the molar value.
# Assays:
# [1] = tested on: isolated neutrophils (opsonized zymosan-stimulated oxidative burst); test: Measurement of chemiluminescence of isolated neutrophils (neutrophil burst, Lucigenin); assay type: cell-based; details: for inhibition at 50 µM / pIC50: Neutrophil; for inhibition at 50 µM: percent inhibition at 50 μM, single concentration, read-out: Neutrophil Burst Screen Value (% @ 50 μM); for Neutrophil Burst IC50 (Lucigenin) / pIC50: opsonized zymosan, 37° C., 14 min, lucigenin
# Procedure: Whole blood (150 ml) was anticoagulated with Acid Citrate Dextrose (ACD) using a ratio of 1:5 ACD to blood.
# All steps are to be performed using polypropylene plastic ware.
# a. Whole blood (60 ml) was added to each of three 100 ml polypropylene graduated cylinders containing 30 ml of […]. The cylinders were covered securely with Parafilm. The blood was allowed to sediment for approximately 1 hour at room temperature.
# b. The turbid straw-colored layer was harvested from the top of the cylinders into 50 ml conical polypropylene tubes. The white blood cells were pelleted by centrifugation at 240×g (Sorvall at 1200 rpm) for 12 min. at 4° C. with the brake on low.
# c. The supernatant was removed by aspiration and the pooled pellet resuspended in 4-50 ml cold PBS (w/o Ca, Mg). It was then centrifuged at 240×g (Sorvall at 1200 rpm) for 6 min. at 4° C. with the brake on high.
# a. The supernatant was aspirated and the pellet resuspended in 12 ml of cold cell culture-grade water. The pellet was titrated gently with a pipet for exactly 30 seconds then 4 ml of cold 0.6 M KCl was added. It was then QSed to 50 ml with cold PBS (w/o Ca, Mg) and centrifuged at 300×g (Sorvall TY 6000D at 1400 rpm) for 6 min. at 4° C. with the brake on high.
# b. Step 2.a. was repeated once more.
# a. The supernatant was aspirated and the cells were resuspended in 2.5 ml cold PBS (w/o Ca, Mg). The cell suspension was carefully layered over 3 ml Ficoll-Hypaque in a 15 ml polypropylene conical tube. It was then centrifuged at 400×g (Sorvall at 1900 rpm) for 30 min. at 4° C. with the brake on low.
# b. Aspiration occurred down to the neutrophil pellet. The pellet was resuspended fin cold PBS (w/o Ca, Mg) and transferred to a 50 ml conical tube. It was then QSed to 50 ml with cold PBS (w/o Ca, Mg) and centrifuged at 300×g (Sorvall at 1400 rpm) for 6 min. at 4° C. with the brake on high.
# d. The supernatant was aspirated and the pellet resuspended in 50 ml cold PBS (w/o Ca, Mg) and centrifuged at 300×g (Sorvall at 1400 rpm) for 6 min. with the brake on high.
# e. The supernatant was aspirated and the neutrophil pellet resuspended in 4.0 ml cold PBS (w/o Ca, Mg). It was kept on ice. Trypan blue (10 μl) was diluted (1:40) and the cells were counted using a hemacytometer. The cell number and viability by Trypan […] exclusion were determined and the results recorded. The cells were diluted to 5.0×10^6 cells/ml with cold PBS-G (with Ca, Mg) prior to plating for the assay.
# 2. […] The suspension was centrifuged and the particles resuspended in 7 ml of PBS-G (with Ca, Mg)(18 mg/ml). It was stored on ice until used (briefly vortexed prior to pipetting).
# 4. PBS-G (10 μl) (with Ca, Mg) was added to the wells in a white 96 well plate.
# 6. The compound dilutions (10 μl) were added to the appropriate wells.
# 7. The cell prep was diluted to 5.0×10^6 cells/ml with PBS-G (with Ca, Mg) in a separate multipipette trough.
# 8. The neutrophil suspension (20 μl) was added to the appropriate wells.
# 9. The plate was incubated at 37° C. for three minutes.
# 10. Zymosan (10 μl of 18 mg/ml) was added to the appropriate wells.
# 11. The plate was read on the luminometer (Labsystems Luminoskan, Needham Heights, Mass.) for 14 min. at 37° C. on the kinetic mode and the results recorded using the software DeltaSoft.
# 12. The plate data was exported into Excel to determine percent of control and derive the means and standard deviations for the data. The IC50 was determined graphically from the data and plotted using SigmaPlot. For cases where one concentration (50 μM) was tested, percent inhibition was compared to that seen with 50 μM apocynin.
# 13. The results are set forth below in Table 1 as "Neutrophil Burst IC50 (Lucigenin)". The results for 50 μM inhibition in the single assay are reported as "Neutrophil Burst Screen Value (% @ 50 μM)".
# [2] = target: T1, Xanthine oxidase (Bos taurus, UniProt P80457); test: Xanthine oxidase assay (superoxide by hypoxanthine/xanthine oxidase, Lucigenin); assay type: biochemical; details: hypoxanthine 150 μM, buttermilk xanthine oxidase, 37° C.; for pIC50: read-out: Xanthine Oxidase Inhibition IC50 (Integral)
# T1 construct: purchased Sigma x-1875; host or cells: buttermilk
# [3] = tested on: Jurkat cells; test: Cytotoxicity assay employing Jurkat cells (MTT); assay type: cell-based; details: Jurkat clone E6-1, MTT, 37° C. overnight
# Procedure: This Assay was performed as set forth in Hansen et al., Journal of Immunological Methods, 119:203-210 (19930; Mosmann, Journal of Immunological Methods, 65:55-63 (1983); and Slater et al., Biochem. Ciophys. Acta, 77:383 (1963); except as noted below.
# Compounds from the following Examples were tested for cytotoxicity using MTT (i.e., 3-[4,5-Dimethylthiazol-2-yl]-2,5-diphenyltetrazolium bromide; Thiazolyl Blue (Sigma, St. Louis, Mo.)).
# MTT was dissolved in basal culture media at a concentration of 5 mg/ml. If necessary, it was briefly warmed at 37° C. to fully dissolve, passed through a sterile filter, and aliquoted and stored at -20° C. until use.
# The Extraction Buffer used was a solution composed of 20% SDS, 2.5% Acetic Acid (80% 6 stock solution), 2.5% 1N Hcl, 50% Dimethylformamide/50% dissolved in distilled water, SDS was dissolved into buffer components with gentle heating and stirring and the resultant solution was filtered and stored until use.
# The MTT solution was added in an amount equal to 10% of the culture volume to each well in a 96-well plate containing 100,000 Jurkat cells/well.
# The wells were then incubated for 0.5 to 2 hours in standard culture conditions. A volume of extraction buffer equal to the culture volume was added. The 96-well plate was then sealed. The formazan crystals were allowed to extract at 37° C. for four hours. The plate was read on a spectrophotometer [Spectramax 250, Molecular Devices, Sunnyvale, Calif.] at an absorbance wavelength of 560 nm. (The background absorbance measured at 650 nm was subtracted from the value measured at 560 nm.)
# The Jurkat cells (Jurkat clone E6-1) were grown using standard conditions supplied by ATCC (American Type Culture Collection--Rockville, Md.).
# The compounds diluted in medium (RPMI 1640 plus 10% fetal bovine serum) stock solution of 100 μM, then this stock solution was further diluted 3-fold before testing in the instant assay.
# 2-Hydroxy-3-methoxy-E-nitrostyrene tested at 100 μM as death control cells, incubated under the above conditions at 37° C. overnight.
# The Extraction Buffer (100 μl) was added to each well and the resultant suspension was incubated 4 hours at 37° C.
# The results from this procedure are set forth above in Table 1 in the column marked "Cytotox (MTT/Jurkat)". […] Toxicity was rated "3" if dead cells and >50% reduction in MTT absorbance at 1 μM test compound.
# T1 sequence (P80457 whole entry): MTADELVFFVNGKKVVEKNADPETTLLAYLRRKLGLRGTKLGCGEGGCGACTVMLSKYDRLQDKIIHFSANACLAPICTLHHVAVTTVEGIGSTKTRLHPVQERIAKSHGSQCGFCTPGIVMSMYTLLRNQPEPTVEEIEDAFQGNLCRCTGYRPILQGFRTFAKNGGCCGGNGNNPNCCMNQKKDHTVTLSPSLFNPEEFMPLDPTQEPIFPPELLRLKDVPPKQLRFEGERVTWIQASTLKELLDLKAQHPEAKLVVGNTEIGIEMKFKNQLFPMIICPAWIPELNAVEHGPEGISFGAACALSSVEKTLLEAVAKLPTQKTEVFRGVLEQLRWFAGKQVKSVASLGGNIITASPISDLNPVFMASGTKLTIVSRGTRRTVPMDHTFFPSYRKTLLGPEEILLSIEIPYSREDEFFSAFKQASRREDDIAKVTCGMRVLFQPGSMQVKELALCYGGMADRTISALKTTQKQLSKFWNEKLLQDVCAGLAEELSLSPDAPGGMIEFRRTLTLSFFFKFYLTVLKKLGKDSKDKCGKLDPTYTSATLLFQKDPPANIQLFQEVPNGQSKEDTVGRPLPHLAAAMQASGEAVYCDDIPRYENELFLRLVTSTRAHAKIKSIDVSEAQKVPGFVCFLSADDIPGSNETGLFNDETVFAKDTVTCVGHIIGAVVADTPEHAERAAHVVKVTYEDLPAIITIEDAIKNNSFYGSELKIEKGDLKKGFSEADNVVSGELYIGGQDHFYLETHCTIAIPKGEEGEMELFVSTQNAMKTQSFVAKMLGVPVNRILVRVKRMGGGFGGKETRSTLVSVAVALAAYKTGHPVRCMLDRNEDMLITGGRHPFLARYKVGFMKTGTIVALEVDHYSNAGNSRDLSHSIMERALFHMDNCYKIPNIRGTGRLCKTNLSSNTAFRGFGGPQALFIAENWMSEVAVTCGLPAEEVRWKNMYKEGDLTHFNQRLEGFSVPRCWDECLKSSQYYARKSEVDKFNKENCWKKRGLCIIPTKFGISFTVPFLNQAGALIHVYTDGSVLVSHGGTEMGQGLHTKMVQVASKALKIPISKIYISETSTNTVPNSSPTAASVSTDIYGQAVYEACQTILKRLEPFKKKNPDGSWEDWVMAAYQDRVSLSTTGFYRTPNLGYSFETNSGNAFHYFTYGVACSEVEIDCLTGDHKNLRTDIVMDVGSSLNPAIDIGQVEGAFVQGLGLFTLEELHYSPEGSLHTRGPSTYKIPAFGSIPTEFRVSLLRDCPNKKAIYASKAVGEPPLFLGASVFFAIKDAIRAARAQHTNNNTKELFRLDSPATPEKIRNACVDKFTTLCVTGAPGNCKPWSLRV
Compound,Neutrophil Burst IC50 (Lucigenin) [1],Xanthine Oxidase Inhibition IC50 (Integral) [2],pIC50 [2],pIC50 [1],further results
"COc1cccc(/C=N/N=C/c2cccc(OC)c2O)c1O [A, Bis[3-methoxy-2-hydroxybenzaldehyde]trans,trans-azine]",No Effect,No Effect,–,–,inhibition at 50 µM [1]: 1.1%; Cytotox (MTT/Jurkat) [3]: 0
"COc1cc(C=Nc2nccs2)ccc1O [B, 2-N'-(3-methoxy-4-hydroxybenzylidene)-2-amino-1,3-thiazole]",–,–,–,–,inhibition at 50 µM [1]: 49.4%
"COc1cc(/C=N/N=C/c2cc(OC)c(O)c(OC)c2)cc(OC)c1O [D, Bis[4-hydroxy-3,5-dimethoxybenzaldehyde]-trans,trans-azine]",–,–,4.15,–,Cytotox (MTT/Jurkat) [3]: 1 (dead cells and >50% reduction in MTT absorbance were observed at 100 μM of the test compound)
"COc1cc(/C=N/N=C/c2cc(Br)c(O)c(OC)c2)cc(Br)c1O [Example 1, Bis[3-Bromo-4-Hydroxy-5-Methoxybenzaldehyde]trans,trans-Azine]",–,–,–,4.42,Cytotox (MTT/Jurkat) [3]: 0
"COc1cccc(/C=N/N=C/c2cccc(OC)c2OC)c1OC [Example 2, Bis[2,3-Dimethoxybenzaldehyde]trans,trans-Azine]",No Effect,No Effect,–,–,–
"COc1ccc(/C=N/N=C/c2ccc(OC)cc2O)c(O)c1 [Example 3, Bis[2-Hydroxy-4-Methoxybenzaldehyde]trans,trans-Azine]",No Effect,No Effect,–,–,–
"COc1ccc(/C=N/N=C/c2ccc(OC)c(O)c2)cc1O [Example 4, Bis[3-Hydroxy-4-Methoxybenzaldehyde]trans,trans-Azine]",No Effect,No Effect,–,–,–
"COc1ccc(/C=N/N=C/c2ccc(OC)c(OC)c2)cc1OC [Example 5, Bis[3,4-Dimethoxybenzaldehyde]trans,trans-Azine]",No Effect,No Effect,–,–,–
"Oc1ccc(/C=N/N=C/c2ccc(O)cc2)cc1 [Example 6, Bis[4-Hydroxybenzaldehyde]trans,trans-Azine]",–,No Effect,–,4.87,Cytotox (MTT/Jurkat) [3]: 0
"CCOc1cc(/C=N/N=C/c2ccc(O)c(OCC)c2)ccc1O [Example 8, Bis[3-Ethoxy-4-Hydroxybenzaldehyde]trans,trans-Azine]",No Effect,–,–,–,–
"COc1cc(/C(C)=N/N=C(\C)c2cc(OC)c(O)c(OC)c2)cc(OC)c1O [Example 9, Bis[3,5-Dimethoxy-4-Hydroxyacetophenone]trans,trans-Azine]",–,–,4.70,5.06,–
"COc1cccc(/C=N/N=C/c2cccc(OC)c2)c1 [Example 11, Bis[3-Methoxybenzaldehyde]trans,trans-Azine]",–,No Effect,–,–,–
"COc1ccc(N=Cc2cc(C(C)(C)C)c(O)c(C(C)(C)C)c2)cc1 [Example 16, N-(3,5-di(tert-Butyl)-4-Hydroxybenzylidene)-p-Methoxyaniline]",–,No Effect,–,–,Cytotox (MTT/Jurkat) [3]: 0

# Further lines, with some results ahead:
Neutrophil Burst IC50 (Lucigenin) [1],Xanthine Oxidase Inhibition IC50 (Integral) [2],pIC50 [2],pIC50 [1],Compound,further results
No Effect,No Effect,–,–,"CC(C)(C)c1cc(/C=N/N=C/c2cc(C(C)(C)C)c(O)c(C(C)(C)C)c2)cc(C(C)(C)C)c1O [Example 14, Bis[3,5-(tert-Butyl)-4-Hydroxybenzaldehyde]trans,trans-Azine]",–
No Effect,No Effect,–,–,"C(=N\N=C\c1ccncc1)/c1ccncc1 [Example 15, Bis[Pyridine-4-Carboxaldehyde]trans,trans-Azine]",–
–,–,4.55,4.88,"COc1cc(C=Nc2ccc(F)cc2)cc(OC)c1O [Example 19, N-(3,5-Dimethoxy-4-Hydroxybenzylidene)-p-Fluoroaniline]",–
–,–,4.47,5.00,"COc1cc(C=Nc2ccc(Br)cc2)cc(OC)c1O [Example 20, N-(3,5-Dimethoxy-4-Hydroxybenzylidene)-p-Bromoaniline]",–
–,–,5.68,5.10,"COc1cc(C=Nc2nncs2)cc(OC)c1O [Example 21, R-N'-(3,5-Dimethoxy-4-Hydroxybenzylidene)-5-Amino-1,3,4-Thiadiazole]",–
–,–,4.79,4.81,"COc1cc(C=Nc2nncs2)ccc1O [Example 22, 5-N'-(3-Methoxy-4-Hydroxybenzylidene)-5-Amino-1,3,4-Thiadiazole]",–
–,–,4.85,5.30,"COc1cc(C=Nc2ccccc2)cc(OC)c1O [Example 23, N-(3,5-Dimethoxy-4-Hydroxybenzylidene)Aniline]",–
